# Laboratory results as given in PMC4728608, “A Cell-Penetrating Peptide with a Guanidinylethyl Amine Structure Directed to Gene Delivery” (Scientific Reports, 2016).
# Like-named read-outs stand apart in the source and are kept apart here.
# Experiments:
# [1] = cited from earlier work
# From the text: The unnatural amino acid described herein was a lysine (Lys) derivative with a guanidinylethyl (GEt) group in the side chain amine [Lys(GEt)] (Fig. 1).
# [2] = Potentiometric titration of model compounds; settings: for protonation degree α at pH 5.5 / protonation degree α at pH 7.4: 100 mM amine and/or guanidine in 100 mM HCl titrated with 100 mM NaOH
# Protocol: 1-Ethylamino-2-guanidinylethane hydrochloride, a model compound for Lys(GEt), was synthesized according to Supplementary Scheme S3 in order to clarify the protonation degree of the GEt amine structure within a range from pH 3 to pH 13. […] The monoprotonate state was a major form of the AEt amine structure at neutral pH. […] The GEt amine structure took the diprotonated form even at neutral pH, as expected.
# N-Ethylethylenediamine hydrochloride (80.5 mg, 0.5 mmol) and 1-ethylamino-2-guanidinylethane hydrochloride (101.5 mg, 0.5 mmol) were separately dissolved in 100 mM HCl (10 mL) to obtain a solution with 100 mM amine and/or guanidine, and then titrated with 100 mM NaOH at 20 °C. Potentiometric titration was performed with a pH meter D-52 (Horiba, Kyoto, Japan). In this experiment, the titrant was added in quantities of 100 μL after the pH values were stabilized.
# [3] = potentiometric titration, 20 °C
# [4] = potentiometric titration, 100 mM in 100 mM HCl titrated with 100 mM NaOH, 20 °C
smiles,measurement,setting,value
"NCCCC[C@H](N)C(=O)O [Lys, lysine]","pKa of protonated side chain (guanidine of Arg, primary amine of Lys)",[1],10.2
CCNCCN.Cl [N-Ethylethylenediamine hydrochloride],protonation degree α at pH 5.5,[2]; [3],0.97
same,protonation degree α at pH 7.4,[2]; [3],0.66
same,pKa1,[2]; [4],7.1
same,pKa2,[2]; [4],10.3
NCCNCCN [diethylenetriamine],pKa of protonated secondary amine,[1],3.9
"CCNCCNC(=N)N.Cl [model compound for Lys(GEt), 1-Ethylamino-2-guanidinylethane hydrochloride]",pKa1,[2],8.8
same,pKa2,[2],12.0
same,protonation degree α at pH 5.5,[2]; [3],0.99
same,protonation degree α at pH 7.4,[2]; [3],0.96
